Target: Tyrosine-protein kinase ABL2 (Homo sapiens) (UniProt P42684)
Test: ABL2 kinase inhibition, dose response, biochemical, Z'-LYTE, FRET readout, direct format (AID 1671257)
Settings: Z'-LYTE FRET kinase assay, recombinant ABL2

Chain of Tyrosine-protein kinase ABL2 (Homo sapiens) (P42684 whole entry, looked up): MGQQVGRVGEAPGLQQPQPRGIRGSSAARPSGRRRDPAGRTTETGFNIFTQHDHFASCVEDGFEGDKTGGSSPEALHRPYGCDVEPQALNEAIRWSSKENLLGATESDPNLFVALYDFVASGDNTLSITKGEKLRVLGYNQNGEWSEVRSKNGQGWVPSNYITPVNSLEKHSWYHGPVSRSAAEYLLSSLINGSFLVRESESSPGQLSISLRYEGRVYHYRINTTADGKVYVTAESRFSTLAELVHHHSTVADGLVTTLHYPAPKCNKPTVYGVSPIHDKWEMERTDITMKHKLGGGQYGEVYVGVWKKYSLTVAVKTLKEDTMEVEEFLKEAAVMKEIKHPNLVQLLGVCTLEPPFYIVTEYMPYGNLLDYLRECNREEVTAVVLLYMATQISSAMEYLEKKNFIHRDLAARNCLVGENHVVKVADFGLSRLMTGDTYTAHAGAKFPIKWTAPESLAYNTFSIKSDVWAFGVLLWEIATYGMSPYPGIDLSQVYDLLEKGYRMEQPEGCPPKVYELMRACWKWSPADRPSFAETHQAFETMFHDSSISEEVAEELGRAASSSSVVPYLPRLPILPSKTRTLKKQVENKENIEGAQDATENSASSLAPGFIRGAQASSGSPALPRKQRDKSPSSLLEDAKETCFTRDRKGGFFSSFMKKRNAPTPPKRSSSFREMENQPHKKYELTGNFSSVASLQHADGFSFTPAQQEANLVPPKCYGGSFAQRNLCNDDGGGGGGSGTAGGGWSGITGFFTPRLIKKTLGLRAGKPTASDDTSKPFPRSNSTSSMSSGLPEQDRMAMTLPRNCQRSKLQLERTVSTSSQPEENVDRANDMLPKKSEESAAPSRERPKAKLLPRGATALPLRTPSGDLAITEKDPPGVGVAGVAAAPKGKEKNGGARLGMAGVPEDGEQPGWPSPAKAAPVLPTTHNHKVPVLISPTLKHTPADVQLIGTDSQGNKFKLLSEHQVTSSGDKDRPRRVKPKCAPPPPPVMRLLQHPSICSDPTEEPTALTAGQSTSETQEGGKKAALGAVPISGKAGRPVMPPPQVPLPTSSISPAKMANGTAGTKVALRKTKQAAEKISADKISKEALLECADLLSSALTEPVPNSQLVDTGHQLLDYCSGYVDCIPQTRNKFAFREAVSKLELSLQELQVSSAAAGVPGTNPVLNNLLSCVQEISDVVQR

- IC50: 1050 nM
Compound: COc1cc2ncnc(Nc3cccc(Cl)c3)c2cc1OC
